Source: PMC9386001, “Identification of naturally occurring inhibitors in Xian-Ling-Gu-Bao capsule against the glucuronidation of estrogens” (Frontiers in Pharmacology, 2022)
Where two headings read alike, the source gives them in different places. Blank lines part the entries; values can stand above or below the molecule they belong to.

Columns and labels:
[1] = biological target: T1, UGT1A10 (Homo sapiens, UniProt Q9HAW8); experiment: Inhibition of UGT1A10 (4-methylumbelliferone-O-glucuronidation); settings: for Inhibitory type: best model by smallest AIC and SC; for activity at 10 µM: human, expressed human UGT1A10 enzyme, probe 4-methylumbelliferone (4-MU)
T1 sequence (Q9HAW8 26-530): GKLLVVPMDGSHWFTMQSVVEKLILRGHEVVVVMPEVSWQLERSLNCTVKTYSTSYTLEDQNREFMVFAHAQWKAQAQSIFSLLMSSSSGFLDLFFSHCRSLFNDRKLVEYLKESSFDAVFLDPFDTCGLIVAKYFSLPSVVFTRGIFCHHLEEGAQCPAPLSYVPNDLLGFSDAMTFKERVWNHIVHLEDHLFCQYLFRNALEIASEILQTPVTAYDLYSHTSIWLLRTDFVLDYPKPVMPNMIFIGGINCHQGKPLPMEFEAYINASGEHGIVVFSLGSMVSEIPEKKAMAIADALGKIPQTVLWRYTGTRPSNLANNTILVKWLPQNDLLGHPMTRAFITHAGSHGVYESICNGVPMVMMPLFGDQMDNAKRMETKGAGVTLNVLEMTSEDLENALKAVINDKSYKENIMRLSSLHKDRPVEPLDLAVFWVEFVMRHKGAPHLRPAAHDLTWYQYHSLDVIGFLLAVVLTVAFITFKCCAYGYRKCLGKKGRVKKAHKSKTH
Procedure: (§1) The final volume of solvent in incubations was 1%. In addition, emodin, atazanavir, and diclofenac were considered as positive controls for UGT1A10, UGT1A1, and UGT2B7, respectively.
(§2) Competitive inhibition, non-competitive inhibition, and mixed-type inhibition models were used to estimate the Ki values by nonlinear regression based on Eqs 6–8, respectively.

[2] = biological target: T2, UGT1A1 (Homo sapiens, UniProt P22309); experiment: Inhibition of UGT1A1 (β-estradiol-3-O-glucuronidation); settings: for Inhibitory type: UGT1A1, best model by smallest AIC and SC; for activity at 10 µM: human
T2 sequence (P22309 26-533): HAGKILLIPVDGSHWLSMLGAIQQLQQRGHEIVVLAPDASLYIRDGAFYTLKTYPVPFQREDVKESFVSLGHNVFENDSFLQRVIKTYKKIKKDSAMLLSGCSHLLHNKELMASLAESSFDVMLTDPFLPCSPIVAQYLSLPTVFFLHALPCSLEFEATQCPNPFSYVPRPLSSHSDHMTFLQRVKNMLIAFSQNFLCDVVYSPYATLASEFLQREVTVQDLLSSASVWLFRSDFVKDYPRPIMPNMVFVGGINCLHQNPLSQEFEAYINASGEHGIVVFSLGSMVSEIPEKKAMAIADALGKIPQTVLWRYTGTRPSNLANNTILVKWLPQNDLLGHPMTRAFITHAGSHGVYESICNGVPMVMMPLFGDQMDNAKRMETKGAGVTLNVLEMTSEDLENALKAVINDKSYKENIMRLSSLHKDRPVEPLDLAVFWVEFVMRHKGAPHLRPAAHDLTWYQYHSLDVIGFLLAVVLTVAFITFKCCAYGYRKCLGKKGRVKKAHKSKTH
Procedure: as §1, §2

[3] = biological target: T3, UGT2B7 (Homo sapiens, UniProt P16662); experiment: Inhibition of UGT2B7 (zidovudine-N-glucuronidation); settings: for Inhibitory type: best model by smallest AIC and SC; for activity at 10 µM: human, probe zidovudine (AZT)
T3 sequence (P16662 24-529): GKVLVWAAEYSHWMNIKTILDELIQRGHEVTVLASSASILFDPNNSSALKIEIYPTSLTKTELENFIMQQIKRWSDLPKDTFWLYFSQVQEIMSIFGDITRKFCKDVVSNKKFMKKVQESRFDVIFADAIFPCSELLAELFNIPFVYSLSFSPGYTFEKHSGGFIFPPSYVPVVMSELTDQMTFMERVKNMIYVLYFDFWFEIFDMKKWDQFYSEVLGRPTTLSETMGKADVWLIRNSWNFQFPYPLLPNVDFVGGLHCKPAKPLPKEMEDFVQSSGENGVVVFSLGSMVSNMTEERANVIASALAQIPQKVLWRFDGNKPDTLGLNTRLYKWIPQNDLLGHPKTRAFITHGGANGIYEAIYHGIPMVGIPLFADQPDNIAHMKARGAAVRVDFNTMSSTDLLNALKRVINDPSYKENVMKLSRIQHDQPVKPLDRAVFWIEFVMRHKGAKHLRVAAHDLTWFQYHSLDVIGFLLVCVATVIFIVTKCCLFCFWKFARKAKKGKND
Procedure: as §1, §2

[4] = substrate: C[C@]12CC[C@@H]3c4ccc(O)cc4CC[C@H]3[C@@H]1C[C@@H](O)[C@@H]2O; experiment: cells, lysate or membranes named; settings: other: UGT2B7; 16-O-glucuronide formation; pH 7.4; 37.0 °C
Procedure: In brief, incubation mixtures (100 μL) contained Tris-HCl buffer solution (50 mM, pH = 7.4), microsomes (HLM, HIM, 0.5 mg/ml) or UGT enzymes (1 mg/ml), MgCl2 (0.88 mM), alamethicin (22 μg/ml), and D-saccharic-1,4-lactone (4.4 mM) and respective substrate. The volume of organic solvent in incubation mixtures was kept below 1%. After pre-incubation at 37°C for 5 min, the reaction was commenced with the addition of UDPGA (4 mM) and subsequently incubated at 37°C for a period. The reaction was terminated by adding 100 μL of cold acetonitrile. Then, the incubation mixtures were vortexed and centrifuged at 13,800 g for 10 min to collect the supernatant for analysis.
All experiments were performed in triplicate.
Glucuronidation rates were expressed as the amounts of formed metabolites per minute per milligram protein (pmol/min/mg protein) based on Eq. 1. Furthermore, kinetic characteristics were evaluated from the suitable curves based on the profile of the Eadie–Hofstee plot, and corresponding kinetic parameters were estimated using Eqs 2–4. Appropriated model fitting was performed by GraphPad Prism V5 software (San Diego, CA).
The intrinsic clearance (CL int ) was derived from V max /K m for Michaelis–Menten and substrate inhibition models, and the maximal clearance (CL max ) was obtained using Eq. 5 for Hill kinetics.

[5] = human UGT1A1 enzyme, probe β-estradiol (E2)

IC50 [1]: 3990 ± 670 nM
Ki [1]: 2600 ± 230 nM
Inhibitory type ([1]; UGT1A10): Competitive
activity at 10 µM [1]: 31.1%
IC50 [2]: 2860 ± 140 nM
Ki [2]: 780 ± 160 nM
Inhibitory type [2]: Non-competitive
activity at 10 µM [2, 5]: 7.42%
IC50 [3]: 1170 ± 100 nM
Ki [3]: 390 ± 30 nM
Inhibitory type ([3]; UGT2B7): Mixed type
α ([3]; UGT2B7, mixed-type inhibition model, αKi): 5.15 ± 2.08
activity at 10 µM ([3]; UGT2B7 enzyme (optimized UGT2B7 incubation system)): 10.2%
Molecule: CC(C)=CCc1cc(-c2coc3cc(O)ccc3c2=O)ccc1O [Neobavaisoflavone, neobavaisoflavone]

IC50 [2]: 1950 ± 150 nM
Ki [2]: 980 ± 230 nM
Inhibitory type [2]: Non-competitive
activity at 10 µM [2, 5]: 1.48%
Molecule: CC(C)=CCc1cc2c(cc1O)oc(=O)c1c3ccc(O)cc3oc21 [Psoralidin, psoralidin]

Molecule: O=C(C=Cc1ccc(O)c2c1C(C(=O)OC(Cc1ccc(O)c(O)c1)C(=O)O)C(c1ccc(O)c(O)c1)O2)OC(Cc1ccc(O)c(O)c1)C(=O)O (centres unmarked) [Salvianolic acid B, salvianolic acid B]
IC50 [2]: 3780 ± 530 nM
Ki [2]: 2160 ± 210 nM
Inhibitory type [2]: Competitive
activity at 10 µM [2]: 36.2%

activity at 10 µM ([2]; expressed human UGT1A1 enzyme, probe β-estradiol (E2)): 4.38%
Molecule: COC(=O)N[C@H](C(=O)N[C@@H](Cc1ccccc1)[C@@H](O)CN(Cc1ccc(-c2ccccn2)cc1)NC(=O)[C@@H](NC(=O)OC)C(C)(C)C)C(C)(C)C [atazanavir, reference compound]

activity at 10 µM ([3]; expressed human UGT2B7 enzyme): 53.9%
Molecule: O=C(O)Cc1ccccc1Nc1c(Cl)cccc1Cl [diclofenac, reference compound]

activity at 10 µM [1]: 52.4%
Molecule: Cc1cc(O)c2c(c1)C(=O)c1cc(O)cc(O)c1C2=O [emodin, reference compound]

residual activity of UGT1A10 ([1]; 10 μM, % of negative control): 37.70%
Inhibitory type ([1]; UGT1A10): Competitive
IC50 ([1]; UGT1A10, substrate 4-MU): 5420 ± 640 nM
Ki ([1]; UGT1A10, substrate 4-MU): 3290 ± 230 nM
residual activity (Figures 3G–I, UGT2B7) ([3]; 10 μM, % of negative control): 13.23%
Inhibitory type ([3]; UGT2B7): Competitive
IC50 ([3]; UGT2B7, substrate AZT): 2270 ± 260 nM
Ki ([3]; UGT2B7, substrate AZT): 1110 ± 170 nM
Molecule: bavachinin

Molecule: icariside II
Inhibitory type ([1]; UGT1A10): Competitive
Inhibitory type [2]: Competitive
Inhibitory type ([3]; UGT2B7): Competitive

B1: UGT2B7 (Homo sapiens) (protein)
chain: T3 sequence (P16662 24-529)
K0.5 [4]: 9.92 ± 0.69 µM
Vmax [4]: 0.00788 µmol/min/mg
Vmax/Km [4]: 794 µL/min/mg
